How the values were obtained:
[1] = tested on: phenylephrine (10 μM) pre-contracted rat isolated prostate; assay: Relaxation of phenylephrine pre-contracted rat isolated prostate strips (isometric tension); details: for relaxation: 10 μM, 1 hour
Method: The rat isolated prostate tissue was prepared as previously described with modifications^[10]. Briefly, Wistar rats (300-400 g) were killed with pentobarbital sodium (30 mg/kg) and the ventral part of their prostates were quickly excised. […] O2 and 5% CO2.
Isometric tension was recorded with a force displacement transducer (UGO BASILE, Model 7004, Italy). After the equilibration period, the strips were primed twice by adding 10 μM of the agonist, phenylephrine, to reach 80-100% of maximum contraction. […] The relaxation on rat prostate by KMUP-1 (0.01-100 μM) and tamsulosin (0.001 nM-100 μM) were also tested by their combination with sildenafil (0.1 μM), respectively. In isolated prostate strips, while stable constriction to phenylephrine was reached, sildenafil (0.1 μM) was pre-incubation for 30 minutes, before the cumulative addition of KMUP-1 (0.01-100 μM) or tamsulosin (0.001 nM-100 μM) to isolated prostate strips. In another experiment, to examine the possible mechanism of action of KMUP-1, rat prostates were pretreated with ODQ (1H-[1,2,4]oxadiazolo[4,3-a]quinoxalin-1-one, 10 μM, sGC inhibitor), RP-8pCPT-cGMPs (10 μM, PKG inhibitor), glibenclamide (10 μM, KATP channel blocker), 4-AP (4-aminopyridine, 100 μM, voltage-dependent K^+ channel blocker), apamin (1 μM, Ca^2+-dependent K^+ channel blocker) and charybdotoxin (ChTX) (0.1 μM, Ca^2+-dependent K^+ channel blocker) for 30 minutes before addition of KMUP-1 (100 μM).

ROCK2 = assay: Western blot of phenylephrine-induced Rho kinase (ROCK2) expression in rat prostate; details: KMUP-1 10, 100 μM; Y-27632 10 μM; phenylephrine 10 μM
Method: In order to examine the expression of Rho kinase in prostate, the prostate strips were pre-incubated with phenylephrine (10 μM) for 30 minutes. After a pre-treatment of phenylephrine, KMUP-1 (10-100 μM) and Y-27632 (10 μM) were further incubated for 30 minutes. After the incubation time, the prostate were extracted with protein extraction reagent (Pierce Biotechnology, Inc., Rockford, Ill., USA.). The PZ-HPV-7 cells were incubated with and without KMUP-1 (0.1-10 μM) at 30 minutes, 8 and 24 hours. They were then washed rapidly with ice-cold PBS, incubated with protein extraction reagent, and scraped from the plates. The prostate tissues and cells were sonicated three times for 10 second each time and centrifuged at 13,000 rpm at 4° C. for 30 minutes. The protein concentrations of supernatants were determined, using bovine serum albumin as the standard. Tissue and cell extract protein were then boiled at a ratio of 4:1 with sample buffer (100 mM Tris, pH 6.8, 20% glycerol, 4% SDS, and 0.2% bromphenol blue). 40-60 μg protein was used in this experiment. Electrophoresis was performed using 10 or 12% SDS-polyacrylamide gel electrophoresis and then transferred to nitrocellulose membranes (Millipore Corporation, Billerica, Mass.). […] The intensity of the bands was measured by densitometry.

a1A-adrenergic receptor = details: data from the reference; cited from earlier work
sGCa1 = assay: Western blot of sGCa1 expression in rat prostate; details: KMUP-1 10-100 μM; sildenafil, zaprinast 100 μM; 1 hour
Method: (§1) Prostate strips were incubated with KMUP-1 (10-100 μM), sildenafil (100 μM) and zaprinast (100 μM) in 10 mL Tyrode solution aerated with 95% O2 and 5% CO2 for 1 hour. To examine the possible mechanisms of KMUP-1 action, the rat prostate were pretreated with ODQ (10 μM), SQ22536 (10 μM) and RP-8pCPT-cGMPs (10 μM) for 30 minutes prior to the addition of KMUP-1 (100 μM).
(§2) In order to examine the expression of Rho kinase in prostate, the prostate strips were pre-incubated with phenylephrine (10 μM) for 30 minutes. After a pre-treatment of phenylephrine, KMUP-1 (10-100 μM) and Y-27632 (10 μM) were further incubated for 30 minutes. After the incubation time, the prostate were extracted with protein extraction reagent (Pierce Biotechnology, Inc., Rockford, Ill., USA.). The PZ-HPV-7 cells were incubated with and without KMUP-1 (0.1-10 μM) at 30 minutes, 8 and 24 hours. They were then washed rapidly with ice-cold PBS, incubated with protein extraction reagent, and scraped from the plates. The prostate tissues and cells were sonicated three times for 10 second each time and centrifuged at 13,000 rpm at 4° C. for 30 minutes. The protein concentrations of supernatants were determined, using bovine serum albumin as the standard. Tissue and cell extract protein were then boiled at a ratio of 4:1 with sample buffer (100 mM Tris, pH 6.8, 20% glycerol, 4% SDS, and 0.2% bromphenol blue). 40-60 μg protein was used in this experiment. Electrophoresis was performed using 10 or 12% SDS-polyacrylamide gel electrophoresis and then transferred to nitrocellulose membranes (Millipore Corporation, Billerica, Mass.). The membrane was blocked with Tris-buffered saline (20 mM Tris and 137 mM NaCl, pH 7.6) containing 0.1% Tween 20 (TTBS) and 5% non-fat milk at room temperature for 1 hour, washed with TTBS, and then incubated overnight at 4° C. in the appropriate primary antibody of PKG (Santa Cruz, 1:200), sGCa1 (Santa Cruz, 1:200), PKA (Abcam, 1:1000), ROCK2 (Upstate, 1:1000), and PDE5A (BD Biosciences, 1:1000), p21 (Upstate, 1:1000). The membranes were washed in TTBS before being incubated with horseradish peroxidase-conjugated antibody against mouse, goat, or rabbit IgG (Santa Cruz, 1:1000) for 1 hour. The membrane was then washed in TTBS and developed with the enhanced chemiluminescence (ECL) for the detection of the specific antigen. The intensity of the bands was measured by densitometry.

PKG = assay: Western blot of PKG expression in rat prostate; details: KMUP-1 10, 100 μM; sildenafil, zaprinast 100 μM
Method: as §1, §2

cGMP = assay: Determination of cGMP in rat isolated prostate (radioimmunoassay); details: 100 μM, 1 hour
Method: Isolated prostate strips from Wistar rats were prepared to determine prostate levels of cGMP and cAMP. Briefly, prostate strips were respectively incubated with KMUP-1 (10-100 μM), sildenafil (100 μM), and zaprinast (100 μM) in 10 mL Tyrode solution aerated with 95% O2 and 5% CO2 for 1 hour. To examine the possible mechanisms of action of KMUP-1, the rat prostate was pretreated with ODQ (10 μM, sGC inhibitor) and SQ22536 (9-(tetrahydro-2-furanyl)-9H-purin-6-amine, 10 μM, adenylyl cyclase inhibitor) for 30 minutes before KMUP-1 was added. After the incubation, the prostate tissues were extracted with 1 mL of 0.1 N HCl. The extracts were then lyophilized for a further measurement of cyclic GMP or cyclic AMP of each sample, using commercially available radioimmunoassay kits (Amersham Pharmacia Biotech, Buckinghamshire, England).

[2] = phenylephrine 10 μM pre-contracted

Nc1nc2c(nc(Sc3ccc(Cl)cc3)n2C2O[C@@H]3COP(=O)(O)O[C@H]3[C@H]2O)c(=O)[nH]1 (stereo in doubt) [8-pCPT-cGMP, reference compound]
relaxation [1, 2]: 35.00±4.40%

C[C@@H](N)[C@H]1CC[C@H](C(=O)Nc2ccncc2)CC1 [Y-27632, reference compound]
phenylephrine-induced Rho kinase expression (ROCK2): protected against phenylephrine-induced Rho kinase expression

COc1cc2nc(N3CCN(C(=O)C4COc5ccccc5O4)CC3)nc(N)c2cc1OC (centres unmarked) [doxazosin, reference compound]
relaxation [1, 2]: 73.00±2.8% | Receptor Affinity (pKi) a1A (a1A-adrenergic receptor): 8.56

CCCc1nn(C)c2c(=O)[nH]c(-c3cc(S(=O)(=O)N4CCN(C)CC4)ccc3OCC)nc12 [sildenafil, reference compound]
expression of sGCa1 (sGCa1): do not significantly induce | relaxation ability ([1]; 0.1 μM, phenylephrine 10 μM pre-contracted): 21.50±2.12% | relaxation [1, 2]: 50.00±6.37% | relaxation ability ([1]; fourth value of the sentence, concentration not given): 78.00±8.02% | expression of PKG (PKG): significantly induce | cGMP levels (cGMP): 3.20±0.61 pmol mg^−1 protein

CCOc1ccccc1OCCN[C@H](C)Cc1ccc(OC)c(S(N)(=O)=O)c1 [tamsulosin, reference compound]
relaxation [1, 2]: 107.50±6.76% | relaxation activity ([1]; 100 μM combined with sildenafil 0.1 μM): 140.00±10.14% | relaxation ability ([1]; 100 μM, phenylephrine 10 μM pre-contracted): 118.00±10.79% | Receptor Affinity (pKi) a1A (a1A-adrenergic receptor): 9.7 | Selective Ratio a1A/a1B (a1A-adrenergic receptor): 6.3 | Selective Ratio a1A/a1D (a1A-adrenergic receptor): 0.2

CCCOc1ccccc1-c1nc2nn[nH]c2c(=O)[nH]1 [zaprinast, reference compound]
expression of sGCa1 (sGCa1): do not significantly induce | relaxation [1, 2]: 79.00±5.00% | expression of PKG (PKG): significantly induce | cGMP levels (cGMP): 2.23±0.24 pmol mg^−1 protein
